How the values were obtained:
Experiment in all cases: Fractional growth, 72 h seliciclib
Format in all cases: cell-based, human
[1] = system: KMRC-1; conditions: KMRC-1 (Kidney), 15 μM seliciclib
From the text: (§1) A total of 270 human cancer cell lines from diverse cancer histopathologic types were investigated.

[2] = system: NCI-H1734; conditions: NCI-H1734 (Lung: NSCLC), 15 μM seliciclib
From the text: as §1

[3] = system: GP5d; conditions: GP5d (Intestine), 15 μM seliciclib
From the text: as §1

[4] = system: Ca9-22; conditions: Ca9-22 (Head & Neck), 15 μM seliciclib
From the text: as §1

[5] = system: 22RV1; conditions: 22RV1 (Prostate), 15 μM seliciclib
From the text: as §1

[6] = system: T47D; conditions: T47D (Breast), 15 μM seliciclib
From the text: as §1

[7] = system: NCI-H647; conditions: NCI-H647 (Lung: NSCLC), 15 μM seliciclib
From the text: as §1

[8] = system: KYSE-140; conditions: KYSE-140 (Esophagus), 15 μM seliciclib
From the text: as §1

[9] = system: IGROV-1; conditions: IGROV-1 (Ovary), 15 μM seliciclib
From the text: as §1

[10] = system: MEL-JUSO; conditions: MEL-JUSO (Skin), 15 μM seliciclib
From the text: as §1

[11] = system: NCI-H522; conditions: NCI-H522 (Lung: NSCLC), 15 μM seliciclib
From the text: as §1

[12] = system: KP-3; conditions: KP-3 (Pancreas), 15 μM seliciclib
From the text: as §1

[13] = system: 1A6; conditions: 1A6 (Bladder), 15 μM seliciclib
From the text: as §1

[14] = system: Caki-1; conditions: Caki-1 (Kidney), 15 μM seliciclib
From the text: as §1

[15] = system: HeLa; conditions: HeLa (Cervix), 15 μM seliciclib
From the text: as §1

[16] = system: HT 1376; conditions: HT 1376 (Bladder), 15 μM seliciclib
From the text: as §1

[17] = system: A2058; conditions: A2058 (Skin), 15 μM seliciclib
From the text: as §1

[18] = system: PA-TU-8988S; conditions: PA-TU-8988S (Pancreas), 15 μM seliciclib
From the text: as §1

[19] = system: SW 1573; conditions: SW 1573 (Lung: NSCLC), 15 μM seliciclib
From the text: as §1

[20] = system: NUGC-3; conditions: NUGC-3 (Stomach), 15 μM seliciclib
From the text: as §1

[21] = system: RT-112; conditions: RT-112 (Bladder), 15 μM seliciclib
From the text: as §1

[22] = system: HuCCT1; conditions: HuCCT1 (Liver), 15 μM seliciclib
From the text: as §1

[23] = system: BFTC-905; conditions: BFTC-905 (Bladder), 15 μM seliciclib
From the text: as §1

[24] = system: LU65C; conditions: LU65C (Lung: NSCLC), 15 μM seliciclib
From the text: as §1

[25] = system: HMVII; conditions: HMVII (Skin), 15 μM seliciclib
From the text: as §1

[26] = system: JHU-028; conditions: JHU-028 (Head & Neck), 15 μM seliciclib
From the text: as §1

[27] = system: 639-V; conditions: 639-V (Bladder), 15 μM seliciclib
From the text: as §1

[28] = system: NCI-H2452; conditions: NCI-H2452 (Lung), 15 μM seliciclib
From the text: as §1

[29] = system: SW 780; conditions: SW 780 (Bladder), 15 μM seliciclib
From the text: as §1

[30] = system: EN; conditions: EN (Uterus), 15 μM seliciclib
From the text: as §1

[31] = system: CAL-33; conditions: CAL-33 (Head & Neck), 15 μM seliciclib
From the text: as §1

[32] = system: SK-MEL-37; conditions: SK-MEL-37 (Skin), 15 μM seliciclib
From the text: as §1

[33] = system: SISO; conditions: SISO (Cervix), 15 μM seliciclib
From the text: as §1

[34] = system: NCI-H1299; conditions: NCI-H1299 (Lung: NSCLC), 15 μM seliciclib
From the text: as §1

[35] = system: BHT-101; conditions: BHT-101 (Thyroid), 15 μM seliciclib
From the text: as §1

[36] = system: YAPC; conditions: YAPC (Pancreas), 15 μM seliciclib
From the text: as §1

[37] = system: COLO 320DM; conditions: COLO 320DM (Intestine), 15 μM seliciclib
From the text: as §1

Q: For `CC[C@H](CO)Nc1nc(NCc2ccccc2)c2ncn(C(C)C)c2n1` [seliciclib, roscovitine], which “Fractional Growth” value [1] is on record?
A: 0.554

Q: And the “Fractional Growth” value [2]?
A: 0.2849

Q: What about the “Fractional Growth” value [3] of the same compound?
A: 0.7382

Q: And the “Fractional Growth” value [4]?
A: 0.4623

Q: And the “Fractional Growth” value [5]?
A: 0.7432

Q: What about the “Fractional Growth” value [6] of the same compound?
A: 0.6314

Q: What about the “Fractional Growth” value [7] of the same compound?
A: 0.4521

Q: And the “Fractional Growth” value [8]?
A: 0.6278

Q: What about the “Fractional Growth” value [9] of the same compound?
A: 0.4776

Q: And the “Fractional Growth” value [10]?
A: 0.4945

Q: And the “Fractional Growth” value [11]?
A: 0.6262

Q: And the “Fractional Growth” value [12]?
A: 0.3396

Q: And the “Fractional Growth” value [13]?
A: 0.6475

Q: And the “Fractional Growth” value [14]?
A: 0.3885

Q: What about the “Fractional Growth” value [15] of the same compound?
A: 0.9192

Q: And the “Fractional Growth” value [16]?
A: 0.6897

Q: What about the “Fractional Growth” value [17] of the same compound?
A: 0.6341

Q: And the “Fractional Growth” value [18]?
A: 0.5791

Q: What about the “Fractional Growth” value [19] of the same compound?
A: 0.6076

Q: What about the “Fractional Growth” value [20] of the same compound?
A: 0.5557

Q: What about the “Fractional Growth” value [21] of the same compound?
A: 0.243

Q: And the “Fractional Growth” value [22]?
A: 0.4559

Q: What about the “Fractional Growth” value [23] of the same compound?
A: 0.4198

Q: And the “Fractional Growth” value [24]?
A: 0.3767

Q: What about the “Fractional Growth” value [25] of the same compound?
A: 0.4646

Q: What about the “Fractional Growth” value [26] of the same compound?
A: 0.5325

Q: What about the “Fractional Growth” value [27] of the same compound?
A: 0.4196

Q: And the “Fractional Growth” value [28]?
A: 0.4571

Q: And the “Fractional Growth” value [29]?
A: 0.3743

Q: What about the “Fractional Growth” value [30] of the same compound?
A: 0.1503

Q: And the “Fractional Growth” value [31]?
A: 0.6834

Q: And the “Fractional Growth” value [32]?
A: 0.5209

Q: And the “Fractional Growth” value [33]?
A: 0.6424

Q: What about the “Fractional Growth” value [34] of the same compound?
A: 0.3352

Q: What about the “Fractional Growth” value [35] of the same compound?
A: 0.4486

Q: What about the “Fractional Growth” value [36] of the same compound?
A: 0.588

Q: What about the “Fractional Growth” value [37] of the same compound?
A: 0.3188
